In BindingDB's records for patent WO2022093856 (AMGEN INC., 2022):
pIC50: −log10 of the molar value.

Target: T1, GTPase KRas [1-169,G12C,C118A] (Homo sapiens, UniProt P01116, C118A/G12C)
T1 construct: 1-169
T1 sequence (P01116 1-169 G12C/C118A): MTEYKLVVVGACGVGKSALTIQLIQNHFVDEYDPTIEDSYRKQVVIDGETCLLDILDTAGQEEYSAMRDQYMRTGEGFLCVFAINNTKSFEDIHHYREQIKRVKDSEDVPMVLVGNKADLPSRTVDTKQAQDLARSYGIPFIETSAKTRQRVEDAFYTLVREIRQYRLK

## C=CC(=O)N1CC2(CCN(c3nc4c(c(N[C@@H](CC(C)C)Cn5ccnn5)n3)CCC(C)(C)C4)C2)C1 [WO2022093856, Example 1-47]
  pIC50: 6.09
